Measured values published in patent US8530445B2, “Combinations of sapacitabine or CNDAC with DNA methyltransferase inhibitors such as decitabine and procaine” (Cyclacel Limited, priority 2008, dated 2013).
Where two headings read alike, the source gives them in different places.

How the values were obtained:
colon cancer = details: model of colon cancer; cited from earlier work
[1] = phase I, patients with a variety of cancers; cited from earlier work
HL60 cells [2] = test: Cell cycle analysis (propidium iodide, flow cytometry); assay type: cell-based; details: azacitidine 128 nM 72 and 96 hours, CNDAC 133 nM by 48 hours
Description: (§1) (A) HL60 cells were treated with 128 nM azacitidine for 24 hours followed by 128 nM azacitidine and 133 nM CNDAC for a further 48 hours. Cells were fixed and DNA stained with propidium iodide. Single agent controls were also included. (B) HL60 cells were treated with 128 nM azacitidine for 24 hours followed by 128 nM azacitidine and 133 nM CNDAC for a further 48 hours. Cells were stained with annexin V that detected apoptotic cells and propidium iodide to detect viable cells. Single agent controls were also included. Data is the average of two samples and representative of at least two independent experiments.
(A) HL60 cells were treated with 128 nM azacitidine for 24 hours followed by 128 nM azacitidine and 133 nM CNDAC for a further 72 hours. Cells were fixed and DNA stained with propidium iodide. Single agent controls were also included. […] Cells were stained with annexin V that detected apoptotic cells and propidium iodide to detect viable cells. […]
For combination analysis, cells were treated with azacitidine for 24 hours followed by a further 48 or 72 hours with azacitidine and CNDAC. […] Prior to analysis cells were washed twice in PBS containing 1% BSA followed by staining with propidium iodide (50 μg/ml) and ribonuclease A (50 μg/ml) in PBS containing 0.1% Triton X-100 and the cell cycle profile was determined by flow cytometry.

HL60 cells [3] = test: Annexin V staining (apoptosis, flow cytometry); assay type: cell-based; details: for apoptotic cells (annexin V): 96 hours total treatment, azacitidine 128 nM, CNDAC 133 nM for 72 hours; for proportion of apoptotic cells (annexin V, in words): azacitidine 72 and 96 hours, CNDAC 48 or 72 hours
Description: as §1
as §1, with “72” for “48”
Single agent treatments were also performed as controls.

HL60 cells [4] = test: Immunoblotting of cell lysates for cleaved PARP; assay type: cell-based; details: HL-60; 0.13 μM azacitidine, 0.13 μM CNDAC; 48 h-96 h total treatment
Description: Samples were collected at various times (indicated) after CNDAC addition. Cells were lysed, fractionated by SDS-PAGE, transferred to nitrocellulose and probed for cleaved PARP (a marker of apoptosis). Data is representative of two independent experiments.
HL-60 cells were treated with DMSO, 0.13 μM azacitidine, 0.13 μM CNDAC or both agents (AC). The schedule involved 24 h azacitidine or DMSO pretreatment followed by the addition of CNDAC or DMSO for the indicated times. Cells were harvested after 48 h-96 h total treatment time. The resulting lysates (20 μg) were resolved on 12% acrylamide Bis-Tris gels, transferred to nitrocellulose membranes and probed with the antibodies shown in FIG. 3. […] Cleaved PARP was also seen in the combination treatment.

[5] = system: cell line that is resistant to cytarabine; details: cited from earlier work

CCCCCCCCCCCCCCCC(=O)Nc1ccn(C2O[C@H](CO)[C@@H](O)[C@@H]2C#N)c(=O)n1 (stereo partly drawn) [(I), 1-(2-C-cyano-2-dioxy-β-D-arabino-pentofuranosyl)-N^4-palmitoyl cytosine]
anticancer activity (colon cancer): strong anticancer activity
dose limiting toxicity [1]: myelosuppression
tolerability [1]: well tolerated

N#C[C@H]1[C@H](O)[C@@H](CO)O[C@H]1n1ccc(N)nc1=O [CNDAC, 1-(2-C-Cyano-2-deoxy-β-D-arabino-pentafuranosyl)-cytosine]
effect on cell cycle profile (in words) (HL60 cells [2]): accumulation of cells in G2/M
apoptotic cells (annexin V) (HL60 cells [3]): 16.5%
proportion of apoptotic cells (annexin V, in words) (HL60 cells [3]): little effect
induction of cleaved PARP (marker of apoptosis) (HL60 cells [4]): induced cleaved PARP at later time points

Nc1ncn([C@@H]2O[C@H](CO)[C@@H](O)[C@H]2O)c(=O)n1 [azacitidine, 4-amino-1-β-D-ribofuranosyl-s-triazin-2(1H)-one, reference compound]
effect on cell cycle profile (in words) (HL60 cells [2]): accumulation of cells in sub-G1, G2/M, and >G2/M
apoptotic cells (annexin V) (HL60 cells [3]): 30.5%
proportion of apoptotic cells (annexin V, in words) (HL60 cells [3]): small increase in the proportion of apoptotic cells
induction of cleaved PARP (marker of apoptosis) (HL60 cells [4]): small induction in cleaved PARP at early time points

Nc1ccn([C@@H]2O[C@H](CO)[C@@H](O)[C@@H]2O)c(=O)n1 [cytarabine]
IC50 ([5]; after 5-azacitidine (upregulation of dCK)): 0.55 µM
IC50 ([5]; before 5-azacitidine): 12.5 µM
